Experimental data: patent publication US11434242B2, “Dopamine-b-hydroxylase inhibitors” (BIAL-PORTELA & Cª, S.A., priority 2017, dated 2022)

Molecular target: T1, Dopamine beta hydroxylase (Homo sapiens, UniProt P09172)
T1 construct: 125 μl of plasma; tissue Instituto Português do Sangue Transplantação; host or cells: human plasma from healthy donors
T1 sequence (P09172 40-617 limits assumed): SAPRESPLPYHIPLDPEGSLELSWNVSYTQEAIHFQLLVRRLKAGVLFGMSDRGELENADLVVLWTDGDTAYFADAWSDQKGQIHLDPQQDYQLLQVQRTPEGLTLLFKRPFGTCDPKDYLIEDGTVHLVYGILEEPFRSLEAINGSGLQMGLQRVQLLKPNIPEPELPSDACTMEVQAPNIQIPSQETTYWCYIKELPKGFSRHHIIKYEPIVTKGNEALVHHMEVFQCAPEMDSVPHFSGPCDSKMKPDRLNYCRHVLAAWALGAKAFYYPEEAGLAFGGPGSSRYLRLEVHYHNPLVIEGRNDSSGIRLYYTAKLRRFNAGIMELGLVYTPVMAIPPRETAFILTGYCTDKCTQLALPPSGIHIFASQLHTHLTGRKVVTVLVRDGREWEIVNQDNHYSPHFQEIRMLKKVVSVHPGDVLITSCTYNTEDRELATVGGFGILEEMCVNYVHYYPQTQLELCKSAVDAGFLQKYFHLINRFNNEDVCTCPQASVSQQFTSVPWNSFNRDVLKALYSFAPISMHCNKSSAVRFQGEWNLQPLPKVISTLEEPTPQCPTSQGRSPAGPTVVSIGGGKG
Assay: Dopamine beta hydroxylase activity in human plasma
Type: biochemical
Details: for Plasma (0.01 μM), activity in % of control: inhibitor 0.01 μM; for Plasma (0.1 μM), activity in % of control: inhibitor 0.1 μM; for Plasma (1 μM), activity in % of control: inhibitor 1 μM
Method in brief: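 Octopamine production from tyramine over 45 min at 37° C, measured photometrically at 330 nm after SCX extraction and periodate oxidation against an octopamine standard curve, indicates plasma DβH activity. Compounds tested at final 10, 100 and 1000 nM in human plasma, pH 5.0 cofactor buffer, 10 min preincubation; results as % of control.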

Row | SMILES | Plasma (0.01 μM), activity in % of control | Plasma (0.1 μM), activity in % of control | Plasma (1 μM), activity in % of control
1 | CN(C)C(=O)Cc1[nH]c(=S)n2c1C[C@H](c1c(F)c(F)cc(F)c1F)C2 [Example 30, (R)—N,N-dimethyl-2-(6-(2,3,5,6-tetrafluorophenyl)-3-thioxo-2,5,6,7-tetrahydro-3H-pyrrolo[1,2-c]imidazol-1-yl)acetamide] | 92.0 % of control | 73.2 % of control | 
2 | Cn1c(CC(=O)N[C@H]2CCOC2)c2n(c1=S)C[C@@H](c1c(F)ccc(F)c1F)C2 [Example 289, 2-((R)-2-methyl-3-thioxo-6-(2,3,6-trifluorophenyl)-2,5,6,7-tetrahydro-3H-pyrrolo[1,2-c]imidazol-1-yl)-N—((S)-tetrahydrofuran-3-yl)acetamide] | 87.1 % of control | 58.3 % of control | 
3 | O=C(Cc1[nH]c(=S)n2c1C[C@H](c1cc(Cl)ccc1F)C2)N[C@@H]1CCOC1 [Example 75, 2-((R)-6-(5-chloro-2-fluorophenyl)-3-thioxo-2,5,6,7-tetrahydro-3H-pyrrolo[1,2-c]imidazol-1-yl)-N—((R)-tetrahydrofuran-3-yl)acetamide] |  | 91.0 % of control | 56.3 % of control
4 | CN1CCN(C(=O)Cc2[nH]c(=S)n3c2C[C@H](c2c(F)c(F)cc(F)c2F)C3)CC1 [Example 81, (R)-1-(4-methylpiperazin-1-yl)-2-(6-(2,3,5,6-tetrafluorophenyl)-3-thioxo-2,5,6,7-tetrahydro-3H-pyrrolo[1,2-c]imidazol-1-yl)ethan-1-one] |  | 63.1 % of control | 15.9 % of control
5 | Fc1cc(F)c(F)c([C@H]2Cc3c(CCc4cccnc4)[nH]c(=S)n3C2)c1F [Example 212, (R)-1-(2-(pyridin-3-yl)ethyl)-6-(2,3,5,6-tetrafluorophenyl)-6,7-dihydro-2H-pyrrolo[1,2-c]imidazole-3(5H)-thione] | 86.5 % of control | 46 % of control | 
6 | Cn1c(CC(=O)N2CCOCC2)c2n(c1=S)C[C@@]1(c3cc(Br)ccc3F)C[C@@H]21 [Example 436, 2-((5aS,6aR)-5a-(5-bromo-2-fluorophenyl)-2-methyl-3-thioxo-2,3,5,5a,6,6a-hexahydrocyclopropa[3,4]pyrrolo[1,2-c]imidazol-1-yl)-1-morpholinoethan-1-one] | 73.6 % of control | 23.9 % of control | 
7 | Cn1c(CC(=O)N[C@@H]2CCCOC2)c2n(c1=S)C[C@@H](c1c(F)c(F)cc(F)c1F)C2 [Example 278, 2-((R)-2-methyl-6-(2,3,5,6-tetrafluorophenyl)-3-thioxo-2,5,6,7-tetrahydro-3H-pyrrolo[1,2-c]imidazol-1-yl)-N—((R)-tetrahydro-2H-pyran-3-yl)acetamide] | 84.2 % of control | 62.0 % of control | 
8 | Cn1c(CC(=O)N[C@@H]2CCOC2)c2n(c1=S)C[C@@H](c1c(F)cccc1F)C2 [Example 446, 2-((R)-6-(2,6-difluorophenyl)-2-methyl-3-thioxo-2,5,6,7-tetrahydro-3H-pyrrolo[1,2-c]imidazol-1-yl)-N—((R)-tetrahydrofuran-3-yl)acetamide] | 83.0 % of control | 62.9 % of control | 
9 | O=C(Cc1[nH]c(=S)n2c1C[C@@H](c1cc(Br)ccc1F)C2)NC1CCCC1 [Example 74, (S)-2-(6-(5-bromo-2-fluorophenyl)-3-thioxo-2,5,6,7-tetrahydro-3H-pyrrolo[1,2-c]imidazol-1-yl)-N-cyclopentylacetamide] |  | 70.3 % of control | 8.1 % of control
10 | CN(C(=O)Cc1c2n(c(=S)n1C)C[C@@]1(c3cc(Br)ccc3F)C[C@@H]21)C1CCOCC1 [Example 439, 2-((5aS,6aR)-5a-(5-bromo-2-fluorophenyl)-2-methyl-3-thioxo-2,3,5,5a,6,6a-hexahydrocyclopropa[3,4]pyrrolo[1,2-c]imidazol-1-yl)-N-methyl-N-(tetrahydro-2H-pyran-4-yl)acetamide] | 67.2 % of control | 11.8 % of control | 
11 | O=C(Cc1[nH]c(=S)n2c1C[C@@H](c1c(F)ccc(Br)c1F)C2)N1CCOCC1 [Example 140, (S)-2-(6-(3-bromo-2,6-difluorophenyl)-3-thioxo-2,5,6,7-tetrahydro-3H-pyrrolo[1,2-c]imidazol-1-yl)-1-morpholinoethan-1-one] | 73.1 % of control | 26.8 % of control | 
12 | Cn1c(CC(=O)N[C@@H]2CCCNC2=O)c2n(c1=S)C[C@@H](c1c(F)ccc(F)c1F)C2 [Example 354, 2-((R)-2-methyl-3-thioxo-6-(2,3,6-trifluorophenyl)-2,5,6,7-tetrahydro-3H-pyrrolo[1,2-c]imidazol-1-yl)-N—((R)-2-oxopiperidin-3-yl)acetamide] | 106.2 % of control | 53.4 % of control | 
13 | O=C(CCc1[nH]c(=S)n2c1C[C@H](c1c(F)c(F)cc(F)c1F)C2)NCC1CC1 [Example 203, (R)—N-(cyclopropylmethyl)-3-(6-(2,3,5,6-tetrafluorophenyl)-3-thioxo-2,5,6,7-tetrahydro-3H-pyrrolo[1,2-c]imidazol-1-yl)propanamide] | 95.8 % of control | 75.8 % of control | 

More lines, now with the values ahead:

Row | Plasma (0.01 μM), activity in % of control | Plasma (0.1 μM), activity in % of control | Plasma (1 μM), activity in % of control | SMILES
14 | 85.0 % of control | 46.0 % of control |  | O=C(Cc1[nH]c(=S)n2c1C[C@H](c1c(F)ccc(Br)c1F)C2)N[C@H]1CCC[C@@H]1O [Example 161, 2-((R)-6-(3-bromo-2,6-difluorophenyl)-3-thioxo-2,5,6,7-tetrahydro-3H-pyrrolo[1,2-c]imidazol-1-yl)-N-((1S,2S)-2-hydroxycyclopentyl)acetamide]
15 | 62.1 % of control | 13.2 % of control |  | Cn1c(CC(=O)NC2CCCC2)c2n(c1=S)C[C@@]1(c3c(F)ccc(Cl)c3F)C[C@@H]21 [Example 271, 2-((5aS,6aR)-5a-(3-chloro-2,6-difluorophenyl)-2-methyl-3-thioxo-2,3,5,5a,6,6a-hexahydrocyclopropa[3,4]pyrrolo[1,2-c]imidazol-1-yl)-N-cyclopentylacetamide]
16 | 101.3 % of control | 56.9 % of control |  | O=C(Cc1[nH]c(=S)n2c1C[C@H](c1c(F)ccc(F)c1F)C2)N[C@@H]1CCCOC1 [Example 365, N—((R)-tetrahydro-2H-pyran-3-yl)-2-((R)-3-thioxo-6-(2,3,6-trifluorophenyl)-2,5,6,7-tetrahydro-3H-pyrrolo[1,2-c]imidazol-1-yl)acetamide]
17 |  | 17.1 % of control | 0.9 % of control | O=C(Cc1[nH]c(=S)n2c1[C@@H]1C[C@]1(c1cc(Br)ccc1F)C2)NC1CCOC1 (stereo partly drawn) [Example 148, 2-((5aS,6aR)-5a-(5-bromo-2-fluorophenyl)-3-thioxo-2,3,5,5a,6,6a-hexahydrocyclopropa[3,4]pyrrolo[1,2-c]imidazol-1-yl)-N-(tetrahydrofuran-3-yl)acetamide]
18 | 27.9 % of control | 4.0 % of control |  | CN(C(=O)Cc1c2n(c(=S)n1C)C[C@@]1(c3c(F)ccc(Cl)c3F)C[C@@H]21)[C@@H]1CCOC1 [Example 467, 2-((5aS,6aR)-5a-(3-chloro-2,6-difluorophenyl)-2-methyl-3-thioxo-2,3,5,5a,6,6a-hexahydrocyclopropa[3,4]pyrrolo[1,2-c]imidazol-1-yl)-N-methyl-N—((R)-tetrahydrofuran-3-yl)acetamide]
19 | 100.8 % of control | 47.4 % of control |  | CN(CCc1[nH]c(=S)n2c1C[C@@H](c1c(F)ccc(Cl)c1F)C2)C(=O)c1cccnc1 [Example 226, (S)—N-(2-(6-(3-chloro-2,6-difluorophenyl)-3-thioxo-2,5,6,7-tetrahydro-3H-pyrrolo[1,2-c]imidazol-1-yl)ethyl)-N-methylnicotinamide]
20 |  | 20.3 % of control | 1.7 % of control | O=C(Cc1[nH]c(=S)n2c1C[C@@H](c1c(F)ccc(Br)c1F)C2)NC1CCC1 [Example 102, (S)-2-(6-(3-bromo-2,6-difluorophenyl)-3-thioxo-2,5,6,7-tetrahydro-3H-pyrrolo[1,2-c]imidazol-1-yl)-N-cyclobutylacetamide]
21 | 64.8 % of control | 17.1 % of control |  | O=C(Cc1[nH]c(=S)n2c1[C@@H]1C[C@]1(c1c(F)ccc(Cl)c1F)C2)NCC(F)(F)F [Example 150, 2-((5aS,6aR)-5a-(3-chloro-2,6-difluorophenyl)-3-thioxo-2,3,5,5a,6,6a-hexahydrocyclopropa[3,4]pyrrolo[1,2-c]imidazol-1-yl)-N-(2,2,2-trifluoroethyl)acetamide]
